Drawing on patent US20250388605A1, “HETEROBIFUNCTIONAL COMPOUNDS AND METHODS OF TREATING DISEASE” (Halda Therapeutics OpCo, Inc., priority 2022, published 2025), this text covers GI50 for 21 molecules.

For assay [1], the system named is VCaP cells. As to the kind of experiment: Cellular growth inhibition assay for VCaP cells, CellTiter-Glo. Format: cell-based, human. Particulars: 72 hours. An outline of the steps:
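GI50 values come from four-parameter curve fits of luminescence data normalized to a zero baseline. Compound, in medium with 0.5% DMSO, was added one day after plating and left for 72 h before CellTiter-Glo 2.0 addition.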
(Cellular ATP, detected with luciferase, serves as a proxy for viable cell number.)

The test system of assay [2] is T-Rex 293 cell line SC3 cells having increased expression of androgen receptor protein due to exposure to doxycycline. Description: Cellular growth inhibition, T-Rex 293 SC3 cells with doxycycline (increased androgen receptor expression), CellTiter-Glo. Format: cell-based. The following applies: T-Rex 293 SC3 cells with 10 ng/mL doxycycline (increased androgen receptor expression), 72 hours, CellTiter-Glo 2.0. An outline of the steps: (§1)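 Doxycycline (10 ng/mL) was either included or omitted to toggle wild-type androgen receptor expression in SC3 cells, a T-Rex 293 clone, grown in stripped-serum, phenol red-free medium. After 72 hours with compound, viable cells were quantified by CellTiter-Glo 2.0.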

In assay [3] the test system is T-Rex 293 cell line SC3 cells lacking increased expression of androgen receptor protein. As to the kind of experiment: Cellular growth inhibition, T-Rex 293 SC3 cells without doxycycline (no increased androgen receptor expression), CellTiter-Glo. Format: cell-based. Particulars: T-Rex 293 SC3 cells not exposed to doxycycline (no increased androgen receptor expression), 72 hours. The method, boiled down: as §1

In assay [4] the test system is T47D cells. As to the kind of experiment: Cellular Growth Inhibition Assay for T47D Cells (CellTiter-Glo). It is filed as cell-based, human. Particulars: 72 hours. An outline of the steps: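 GI50 values derive from four-parameter regression of CellTiter-Glo 2.0 luminescence, using zero luminescence as baseline. Human breast cancer T47D cells (3000/well; DMEM, 10% FBS, 0.2 units/mL insulin) were exposed for 72 h to compound dilutions at 0.5% DMSO, with dosing starting 24 h after seeding.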

As to `Cn1cc(-c2cc(C(C)(C)O)ccc2Oc2ccc(C(C)(C)N3CC4(CN(c5ncc(C(=O)N[C@H]6C(C)(C)[C@H](Oc7ccc(C#N)c(Cl)c7)C6(C)C)cn5)CCO4)C3)cc2)c2cc[nH]c2c1=O` [Compound I-312], the GI50 in assay [1] is less than 0.5 µM; in assay [2], less than 0.5 µM; in assay [3], 0.5 to 1.5 µM; in assay [4], 0.5 to 1.5 µM.
For the molecule `CCS(=O)(=O)c1ccc(OC2CC(OC3CC4(CCN(c5ncc(C(=O)NC6C(C)(C)C(Oc7ccc(C#N)c(Cl)c7)C6(C)C)cn5)CC4)C3)C2)c(-c2cn(C)c(=O)c3[nH]ccc23)c1` (stereo not drawn) [Compound I-295, N-[3-(3-chloro-4-cyano-phenoxy)-2,2,4,4-tetramethyl-cyclobutyl]-2-[2-[3-[4-ethylsulfonyl-2-(6-methyl-7-oxo-1Hpyrrolo[2,3-c]pyridin-4-yl)phenoxy]cyclobutoxy]-7-azaspiro[3.5]nonan-7-yl]pyrimidine-5-carboxamide], the GI50 in assay [1] (Homo sapiens), in assay [2], in assay [3] and in assay [4] (Homo sapiens) was less than 0.5 µM throughout.
Turning to `CCS(=O)(=O)c1ccc(Oc2ccc(CCC3CCN(c4ncc(C(=O)N[C@H]5C(C)(C)[C@H](Oc6ccc(C#N)c(Cl)c6)C5(C)C)cn4)CC3)c(F)c2)c(-c2cn(C)c(=O)c3[nH]ccc23)c1` [Compound I-284], the GI50 was less than 0.5 µM in assay [1], less than 0.5 µM in assay [2], greater than 3 µM in assay [3] and less than 0.5 µM in assay [4].
Regarding `Cn1cc(-c2cc(C(C)(C)O)ccc2Oc2ccc(F)c(OCCN3CC4(C3)CN(c3ncc(C(=O)N[C@H]5C(C)(C)[C@H](Oc6ccc(C#N)c(Cl)c6)C5(C)C)cn3)C4)c2F)c2cc[nH]c2c1=O` [Compound I-239], the GI50 in assay [1], in assay [2], in assay [3] and in assay [4] was less than 0.5 µM throughout.
Take `Cn1cc(-c2cc(C(C)(C)O)ccc2Oc2ccc(N3CC(C4CC5(C4)CN(c4ncc(C(=O)N[C@H]6C(C)(C)[C@H](Oc7ccc(C#N)c(Cl)c7)C6(C)C)cn4)C5)C3)cc2)c2cc[nH]c2c1=O` [Compound I-351]: the GI50 in assay [1], in assay [2], in assay [3] and in assay [4] was less than 0.5 µM in each case.
On to `CCS(=O)(=O)c1ccc(OC(CCCCOC2CCN(c3ncc(C(=O)N[C@H]4C(C)(C)[C@H](Oc5ccc(C#N)c(Cl)c5)C4(C)C)cn3)CC2)C2CC2)c(-c2cn(C)c(=O)c3[nH]ccc23)c1` (stereo partly drawn) [Compound I-234], for which the GI50 in assay [1], in assay [2], in assay [3] and in assay [4] was less than 0.5 µM in each case.
Take `Cn1cc(-c2cc(C(C)(C)O)ccc2Oc2ccc(CC3CC(C4CCCN(c5ncc(C(=O)N[C@H]6C(C)(C)[C@H](Oc7ccc(C#N)c(Cl)c7)C6(C)C)cn5)C4)C3)cc2)c2cc[nH]c2c1=O` (single isomer, unassigned) [Compound I-348]: the GI50 is less than 0.5 µM in assay [1], less than 0.5 µM in assay [2], greater than 3 µM in assay [3] and less than 0.5 µM in assay [4].
For `CCS(=O)(=O)Nc1ccc(Oc2cccc(COC3CCN(c4ncc(C(=O)N[C@H]5C(C)(C)[C@H](Oc6ccc(C#N)c(Cl)c6)C5(C)C)cn4)CC3)c2F)c(-c2cn(C)c(=O)c3[nH]ccc23)c1` [Compound I-164], the GI50 was less than 0.5 µM in assay [1] (Homo sapiens), less than 0.5 µM in assay [2], greater than 3 µM in assay [3] and less than 0.5 µM in assay [4] (Homo sapiens).
Take `CCS(=O)(=O)Nc1ccc(Oc2cccc(C3CN(C4CCN(c5ncc(C(=O)N[C@H]6C(C)(C)[C@H](Oc7ccc(C#N)c(Cl)c7)C6(C)C)cn5)CC4)C3)c2)c(-c2cn(C)c(=O)c3[nH]ccc23)c1` [Compound I-76]: the GI50 in assay [1] (Homo sapiens) was less than 0.5 µM; in assay [2], less than 0.5 µM; in assay [3], 1.5 to 3 µM; in assay [4] (Homo sapiens), less than 0.5 µM.
Turning to `CCS(=O)(=O)Nc1ccc(Oc2cccc(OC3CCN(c4ncc(C(=O)N[C@H]5C(C)(C)[C@H](Oc6ccc(C#N)c(Cl)c6)C5(C)C)cn4)CC3)c2)c(-c2cn(C)c(=O)c3[nH]ccc23)c1` [Compound I-24], the GI50 in assay [1] (Homo sapiens), in assay [2], in assay [3] and in assay [4] (Homo sapiens) was less than 0.5 µM each time.
Consider `Cn1cc(-c2cc(C(C)(C)O)ccc2OCC(C)(C)CN2CC(OC3CCN(c4ncc(C(=O)NC5C(C)(C)C(Oc6ccc(C#N)c(Cl)c6)C5(C)C)cn4)CC3)C2)c2cc[nH]c2c1=O` (stereo not drawn) [Compound I-282, N-[3-(3-chloro-4-cyano-phenoxy)-2,2,4,4-tetramethyl-cyclobutyl]-2-[4-[1-[3-[4-(1-hydroxy-1-methyl-ethyl)-2-(6-methyl-7-oxo-1H-pyrrolo[2,3-c]pyridin-4-yl)phenoxy]-2,2-dimethyl-propyl]azetidin-3-yl]oxy-1-piperidyl]pyrimidine-5-carboxamide], for which the GI50 in assay [1] (Homo sapiens) is less than 0.5 µM; in assay [2], less than 0.5 µM; in assay [3], 0.5 to 1.5 µM; in assay [4] (Homo sapiens) it was 0.5 to 1.5 µM.
As for `Cn1cc(-c2cc(C(C)(C)O)ccc2OC(CCCCCN2CCN(c3ncc(C(=O)NC4C(C)(C)C(Oc5ccc(C#N)c(Cl)c5)C4(C)C)cn3)CC2)C2CC2)c2cc[nH]c2c1=O` (stereo not drawn) [Compound I-243, N-[3-(3-chloro-4-cyano-phenoxy)-2,2,4,4-tetramethyl-cyclobutyl]-2-[4-[6-cyclopropyl-6-[4-(1-hydroxy-1-methyl-ethyl)-2-(6-methyl-7-oxo-1H-pyrrolo[2,3-c]pyridin-4-yl)phenoxy]hexyl]piperazin-1-yl]pyrimidine-5-carboxamide], the GI50 is less than 0.5 µM in assay [1] (Homo sapiens), less than 0.5 µM in assay [2], 0.5 to 1.5 µM in assay [3] and 0.5 to 1.5 µM in assay [4] (Homo sapiens).
Turning to `Cn1cc(-c2cc(C(C)(C)O)ccc2O[C@H]2C[C@H](OCC3CCN(c4ncc(C(=O)N[C@H]5C(C)(C)[C@H](Oc6ccc(C#N)c(Cl)c6)C5(C)C)cn4)CC3)C2)c2cc[nH]c2c1=O` [Compound I-290], the GI50 is less than 0.5 µM in assay [1], less than 0.5 µM in assay [2], less than 0.5 µM in assay [3] and 0.5 to 1.5 µM in assay [4].
As to `Cn1cc(-c2cc(C(C)(C)O)ccc2Oc2ccc(CCN3CC4(C3)CN(c3ncc(C(=O)N[C@H]5C(C)(C)[C@H](Oc6ccc(C#N)c(Cl)c6)C5(C)C)cn3)C4)cc2)c2cc[nH]c2c1=O` [Compound I-259], the GI50 in assay [1] was less than 0.5 µM; in assay [2], less than 0.5 µM; in assay [3], 0.5 to 1.5 µM; in assay [4], less than 0.5 µM.
For the molecule `Cn1cc(-c2cc(C(C)(C)O)ccc2Oc2ccc(N3CC(CC4CN(c5ccc(C(=O)N[C@H]6C(C)(C)[C@H](Oc7ccc(C#N)c(Cl)c7)C6(C)C)cn5)C4)C3)cc2)c2cc[nH]c2c1=O` [Compound I-316], the GI50 in assay [1] (Homo sapiens) was less than 0.5 µM; in assay [2], less than 0.5 µM; in assay [3], less than 0.5 µM; in assay [4] (Homo sapiens), 0.5 to 1.5 µM.
Turning to `CCS(=O)(=O)Nc1ccc(Oc2cccc(C3CN(CC4CCN(c5ncc(C(=O)N[C@H]6C(C)(C)[C@H](Oc7ccc(C#N)c(Cl)c7)C6(C)C)cn5)CC4)C3)c2)c(-c2cn(C)c(=O)c3[nH]ccc23)c1` [Compound I-78], the GI50 in assay [1] (Homo sapiens), in assay [2], in assay [3] and in assay [4] (Homo sapiens) was less than 0.5 µM each time.
Take `Cn1cc(-c2cc(C(C)(C)O)ccc2Oc2ccc(CCC3CCN(c4ncc(C(=O)N[C@H]5C(C)(C)[C@H](Oc6ccc(C#N)c(Cl)c6)C5(C)C)cn4)CC3)nc2)c2cc[nH]c2c1=O` [Compound I-302]: the GI50 in assay [1] was less than 0.5 µM; in assay [2], less than 0.5 µM; in assay [3], 0.5 to 1.5 µM; in assay [4], 0.5 to 1.5 µM.
Regarding `CCS(=O)(=O)Nc1ccc(Oc2cccc(N3CCC(CC4CCN(c5ncc(C(=O)N[C@H]6C(C)(C)[C@H](Oc7ccc(C#N)c(Cl)c7)C6(C)C)cn5)CC4)C3)c2)c(-c2cn(C)c(=O)c3[nH]ccc23)c1` (stereo partly drawn) [Compound I-40], the GI50 was less than 0.5 µM in assay [1] (Homo sapiens), less than 0.5 µM in assay [2], greater than 3 µM in assay [3] and less than 0.5 µM in assay [4] (Homo sapiens).
With `Cn1cc(-c2cc(C(C)(C)O)ccc2O[C@H]2C[C@H](CC3CCN(c4ncc(C(=O)N[C@H]5C(C)(C)[C@H](Oc6ccc(C#N)c(Cl)c6)C5(C)C)cn4)CC3)C2)c2cc[nH]c2c1=O` [Compound I-309, N-[3-(3-chloro-4-cyano-phenoxy)-2,2,4,4-tetramethyl-cyclobutyl]-2-[4-[[3-[4-(1-hydroxy-1-methyl-ethyl)-2-(6-methyl-7-oxo-1H-pyrrolo[2,3-c]pyridin-4-yl)phenoxy]cyclobutyl]methyl]-1-piperidyl]pyrimidine-5-carboxamide], the GI50 in assay [1] (Homo sapiens) was less than 0.5 µM; in assay [2], less than 0.5 µM; in assay [3] it was 0.5 to 1.5 µM; in assay [4] (Homo sapiens), less than 0.5 µM.
As to `Cn1cc(-c2cc(C(C)(C)O)ccc2Oc2ccc(N3CCC(CC4CN(c5ncc(C(=O)N[C@H]6C(C)(C)[C@H](Oc7ccc(C#N)c(Cl)c7)C6(C)C)cn5)C4)CC3)cc2)c2cc[nH]c2c1=O` [Compound I-350], the GI50 in assay [1] (Homo sapiens), in assay [2], in assay [3] and in assay [4] (Homo sapiens) was less than 0.5 µM each time.
Consider `CCS(=O)(=O)c1ccc(Oc2ccc(CN3CC4(C3)CN(c3ncc(C(=O)N[C@H]5C(C)(C)[C@H](Oc6ccc(C#N)c(Cl)c6)C5(C)C)cn3)CCO4)cc2)c(-c2cn(C)c(=O)c3[nH]ccc23)c1` [Compound I-261], for which the GI50 in assay [1], in assay [2], in assay [3] and in assay [4] was less than 0.5 µM in each case.

Usually GI50 stands for the concentration giving 50% growth inhibition. Read a low GI50 as more potent growth inhibition.
